Each block holds one compound with its values, some of them ahead of it.
Assays:
5′-TGTGAACA-3′ = assay: DNase I footprint titrations; conditions: single base pair mismatch sequence
5′-AACCAAGTCTTGGTA-3′ = assay: Association constants, recognition of 15 base pairs; conditions: Table 7, C3-OH polyamides, match site
5′-AACCAAGTACTTGGTA-3′ = assay: Association constants, recognition of 16 base pairs; format: binding; conditions: Table 10, C3-OH polyamides, match site
5′-TGGAACA-3′ = assay: DNase I footprint titration; conditions: formal match sequence
5′-TGTAACA-3′ = assay: DNase I footprint titration
5′-AAAAACACA-3′ = assay: Quantitative DNase I footprint titration
[1] = molecular target: nine bp polyamide binding site on restriction fragment from pUC-19; assay: Pvu II endonuclease protection assay, association and dissociation rates
From the text: Provided herein is an endonuclease protection assay to measure the rate of polyamide-DNA complex formation. Such an assay may comprise a labeled restriction fragment comprising a polyamide binding site that overlaps a restriction endonuclease cleavage site. Cleavage by the cognate is prevented when the overlapping polyamide binding site is occupied by the polyamide. As a control, a second labeled DNA fragment may be that contains the restriction site, but lacks the overlapping polyamide binding site. The rate of polyamide association with its target binding site may be assessed by incubating the solutions of the polyamide with the labeled target and reference fragments for a sufficient timer period. Using the experimental conditions provided herein, the reference site is nearly completely digested, but protection at the target site is observed and can be correlated with polyamide concentration and the time of equilibration. Similarly, the dissociation rate is analyzed by adding an excess of unlabeled competitor DNA to an equilibrated solution of the labeled DNA fragments and polyamide. Addition of the competitor reduces the concentration of free polyamide to zero. The rate at with polyamide dissociation occurs from the target site on the labeled fragment can be followed by the rate of loss of protection from restriction enzyme digestion as the re-equilibration time is increased.
An engineered, radiolabeled restriction fragment from pUC-19 was prepared in which a nine bp polyamide binding site overlaps by two base pairs with the cleavage site for the restriction endonuclease Pvu II. Cleavage by Pvu II is prevented when the overlapping polyamide binding site is .occupied by the polyamide. As a control, a second radiolabeled DNA fragment was prepared which contains a Pvu II site, but lacks the overlapping polyamide binding site.
The rate of polyamide association with its target binding site was assessed by combining solutions of the polyamide with the radiolabeled target and reference fragments and allowing them to for 5 minutes to 5 hours before initiating a treatment (1-2 minutes) with the enzyme Pvu II. Under the experimental conditions, the reference site is nearly completely digested, but protection at the target site is observed and can be correlated with polyamide concentration and the time of equilibration. Similarly, the dissociation rate is analyzed by adding an excess of unlabeled competitor DNA to an equilibrated solution of the labeled DNA fragments and polyamide. Addition of the competitor reduces the concentration of free polyamide to zero. The rate at with polyamide dissociation occurs from the target site on the labeled fragment can be followed by the rate of loss of protection from Pvu II digestion as the re-equilibration time is increased. The association profile with respect to time for the 9-ring extended hairpin polyamide ImPyPy-γ-ImPyPy-β-PyPyPy-G-Dp binding its cognate 9 base pair match site is shown in FIG. 6.
The extended hairpin dissociation rate has been determined to be kd=3.1±0.2×10^−5 s^−1, this corresponds to a half-time of 6.2 h (10 mM Bis-Tris (pH 7.0), 50 mM NaCl, 5 mM MgCl2, 1 mM mercaptoethanol at 37° C.). Wherein half-time is defined as the time required for 50% of a population of DNA and polyamide to dissociate or associate. The association rate has been determined at ka=1.3±0.8×10^4 M^−1s^−1; this corresponds to a half-time of 3.0 h at 5.0 nM. The determined value for the equilibrium association constant (Keq=6.3±0.8×10^8 M^−1) correlates well with the kinetically determined ratio (ka/kd=4.2±2.6×10^8 M^−1).

SMILES: CN(C)CCCNC(=O)CCNC(=O)c1cc(NC(=O)c2cc(NC(=O)CCNC(=O)c3cc(NC(=O)c4cc(NC(=O)c5nc(NC(=O)CCCNC(=O)c6cc(NC(=O)c7cc(NC(=O)c8cc(NC(=O)CCNC(=O)c9cc(NC(=O)c%10nccn%10C)cn9C)cn8C)cn7C)cn6C)cn5C)cn4C)cn3C)cn2C)cn1C
Ka (5′-TGTGAACA-3′): < 1e+09 M⁻¹

SMILES: CC(=O)Nc1cn(C)c(C(=O)Nc2cn(C)c(C(=O)Nc3cc(C(=O)NCCCC(=O)Nc4cc(C(=O)Nc5cc(C(=O)Nc6cc(C(=O)NCCCO)n(C)c6)n(C)c5)n(C)c4)n(C)c3)n2)n1 [Ac-ImImPy-γ-PyPyPy-C3—OH]
Ka 5′-AACCAAGTCTTGGTA-3′ (5′-AACCAAGTCTTGGTA-3′): 7 × 10^6
Ka 5′-AACCAAGTACTTGGTA (5′-AACCAAGTACTTGGTA-3′): 7 × 10^6

SMILES: Cn1cc(NC(=O)c2cc(NC(=O)c3cc(NC(=O)CCCNC(=O)c4cc(NC(=O)c5nc(NC(=O)c6nc(NC(=O)CCCCCNC(=O)c7cc(NC(=O)c8cc(NC(=O)c9cc(NC(=O)c%10nccn%10C)cn9C)cn8C)cn7C)cn6C)cn5C)cn4C)cn3C)cn2C)cc1C(=O)NCCCO [ImPyPyPy-C6-ImImPy-γ-PyPyPy-C3—OH]
Ka 5′-AACCAAGTACTTGGTA (5′-AACCAAGTACTTGGTA-3′): < 1e+08 M⁻¹

Further lines, results first:

equilibrium association constant Ka (5′-TGGAACA-3′): 3.6×10^9 m^−1
reduction of affinity of the 5′-TGTAACA-3′ complex relative to ImPyPyPyPy-γ-ImPyPyPyPy-β-Dp (5′-TGTAACA-3′): > 300 fold
free energy difference (5′-TGTAACA-3′; 5′-TGTAACA-3′ complexes): at least 4 kcal/mol
equilibrium association constant Ka (5′-TGTAACA-3′; pH 7.0, 22° C.): < 1e+07 M⁻¹
SMILES: CN(C)CCCNC(=O)CCNC(=O)c1cc(NC(=O)c2cc(NC(=O)c3cc(NC(=O)c4cc(NC(=O)c5nc(NC(=O)CCCNC(=O)c6cc(NC(=O)c7cc(NC(=O)c8cc(NC(=O)c9nc(NC(=O)c%10nccn%10C)cn9C)cn8C)cn7C)cn6C)cn5C)cn4C)cn3C)cn2C)cn1C [ImImPyPyPy-γ-ImPyPyPyPy-β-Dp]

increase in affinity relative to six-ring hairpin ImPyPy-γ-ImPyPy-β-Dp (5′-AAAAACACA-3′): ~400 fold
Kd (5′-AAAAACACA-3′; read-out: concentration at which the target site is bound, 9-bp target site): 50 pM
kinetically determined ratio ka/kd [1]: 4.2±2.6×10^8 M^−1
dissociation rate kd ([1]; 10 mM Bis-Tris (pH 7.0), 50 mM NaCl, 5 mM MgCl2, 1 mM mercaptoethanol at 37° C.): 3.1±0.2×10^−5 s^−1
association rate ka ([1]; 37° C.): 1.3±0.8×10^4 M^−1s^−1
dissociation half-time ([1]; 37° C.): 6.2 h
equilibrium association constant Keq ([1]; 37° C.): 6.3±0.8×10^8 M^−1
association half-time ([1]; at 5.0 nM): 3.0 h
SMILES: CN(C)CCCNC(=O)CNC(=O)c1cc(NC(=O)c2cc(NC(=O)c3cc(NC(=O)CCNC(=O)c4cc(NC(=O)c5cc(NC(=O)c6nc(NC(=O)CCCNC(=O)c7cc(NC(=O)c8cc(NC(=O)c9nccn9C)cn8C)cn7C)cn6C)cn5C)cn4C)cn3C)cn2C)cn1C [ImPyPy-γ-ImPyPy-β-PyPyPy-G-Dp]

— patent US6555692B1, “Preparation and use of bifunctional molecules having DNA sequence binding specificity” (California Institute of Technology, priority 1996, dated 2003)
